Laboratory results reported in PubChem BioAssay (NCI).
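How tested: cells in 96-well plates exposed to compound for 48 hours at five concentrations. The concentration for full growth arrest is given as TGI.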

Experiments:
Assay in all cases: DTP human tumour cell line panel, 48 h
CCRF-CEM leukemia = test system: CCRF-CEM leukemia
MDA-MB-435 = test system: MDA-MB-435
TK-10 renal = test system: TK-10 renal
SF-268 CNS = test system: SF-268 CNS
OVCAR-8 ovarian = test system: OVCAR-8 ovarian
HCC-2998 colon = test system: HCC-2998 colon
HS 578T breast = test system: HS 578T breast
MDA-MB-231 breast = test system: MDA-MB-231 breast
SK-MEL-2 melanoma = test system: SK-MEL-2 melanoma
MALME-3M melanoma = test system: MALME-3M melanoma
OVCAR-5 ovarian = test system: OVCAR-5 ovarian
SW-620 colon = test system: SW-620 colon
NCI-H226 lung = test system: NCI-H226 lung
MCF7 breast = test system: MCF7 breast
K-562 leukemia = test system: K-562 leukemia
M14 melanoma = test system: M14 melanoma
DU-145 prostate = test system: DU-145 prostate
RXF 393 renal = test system: RXF 393 renal
HCT-116 colon = test system: HCT-116 colon
SK-MEL-5 melanoma = test system: SK-MEL-5 melanoma
BT-549 breast = test system: BT-549 breast
KM12 colon = test system: KM12 colon
SF-539 CNS = test system: SF-539 CNS
NCI-H460 lung = test system: NCI-H460 lung
OVCAR-3 ovarian = test system: OVCAR-3 ovarian
HOP-62 NSCLC = test system: HOP-62 NSCLC
U251 CNS = test system: U251 CNS
MDA-N = test system: MDA-N
IGROV1 ovarian = test system: IGROV1 ovarian
SR leukemia = test system: SR leukemia
CAKI-1 renal = test system: CAKI-1 renal
UACC-62 melanoma = test system: UACC-62 melanoma
A549 NSCLC = test system: A549 NSCLC
ACHN renal = test system: ACHN renal
PC-3 prostate = test system: PC-3 prostate
SF-295 CNS = test system: SF-295 CNS
LOX IMVI melanoma = test system: LOX IMVI melanoma
RPMI-8226 leukemia = test system: RPMI-8226 leukemia
HOP-92 NSCLC = test system: HOP-92 NSCLC
UO-31 renal = test system: UO-31 renal
SNB-19 CNS = test system: SNB-19 CNS
SNB-75 CNS = test system: SNB-75 CNS
NCI-H23 lung = test system: NCI-H23 lung
786-0 renal = test system: 786-0 renal
HCT-15 colon = test system: HCT-15 colon
SK-MEL-28 melanoma = test system: SK-MEL-28 melanoma
MOLT-4 leukemia = test system: MOLT-4 leukemia
NCI/ADR-RES ovarian = test system: NCI/ADR-RES ovarian
T-47D breast = test system: T-47D breast
HL-60(TB) leukemia = test system: HL-60(TB) leukemia
UACC-257 melanoma = test system: UACC-257 melanoma
EKVX NSCLC = test system: EKVX NSCLC
COLO 205 colon = test system: COLO 205 colon
SN12C renal = test system: SN12C renal
HT29 colon = test system: HT29 colon
OVCAR-4 ovarian = test system: OVCAR-4 ovarian
SK-OV-3 ovarian = test system: SK-OV-3 ovarian
NCI-H522 lung = test system: NCI-H522 lung
A498 renal = test system: A498 renal

## CCOP(=O)(OCC)C(C)(C)OC(=O)NC#N
CCRF-CEM leukemia
  TGI: > 100 µM
MDA-MB-435
  TGI: > 100 µM
TK-10 renal
  TGI: > 100 µM
SF-268 CNS
  TGI: > 100 µM
OVCAR-8 ovarian
  TGI: > 100 µM
HCC-2998 colon
  TGI: > 100 µM
HS 578T breast
  TGI: > 100 µM
MDA-MB-231 breast
  TGI: > 100 µM
SK-MEL-2 melanoma
  TGI: > 100 µM
MALME-3M melanoma
  TGI: > 100 µM
OVCAR-5 ovarian
  TGI: > 100 µM
SW-620 colon
  TGI: > 100 µM
NCI-H226 lung
  TGI: > 100 µM
MCF7 breast
  TGI: > 100 µM
K-562 leukemia
  TGI: > 100 µM
M14 melanoma
  TGI: > 100 µM
DU-145 prostate
  TGI: > 100 µM
RXF 393 renal
  TGI: > 100 µM
HCT-116 colon
  TGI: > 100 µM
SK-MEL-5 melanoma
  TGI: > 100 µM
BT-549 breast
  TGI: > 100 µM
KM12 colon
  TGI: > 100 µM
SF-539 CNS
  TGI: > 100 µM
NCI-H460 lung
  TGI: > 100 µM
OVCAR-3 ovarian
  TGI: > 100 µM
HOP-62 NSCLC
  TGI: > 100 µM
U251 CNS
  TGI: > 100 µM
MDA-N
  TGI: > 100 µM
IGROV1 ovarian
  TGI: > 100 µM
SR leukemia
  TGI: > 100 µM
CAKI-1 renal
  TGI: > 100 µM
UACC-62 melanoma
  TGI: > 100 µM
A549 NSCLC
  TGI: > 100 µM
ACHN renal
  TGI: > 100 µM
PC-3 prostate
  TGI: > 100 µM
SF-295 CNS
  TGI: > 100 µM
LOX IMVI melanoma
  TGI: > 100 µM
RPMI-8226 leukemia
  TGI: > 100 µM
HOP-92 NSCLC
  TGI: > 100 µM
UO-31 renal
  TGI: > 100 µM
SNB-19 CNS
  TGI: > 100 µM
SNB-75 CNS
  TGI: > 100 µM
NCI-H23 lung
  TGI: > 100 µM
786-0 renal
  TGI: > 100 µM
HCT-15 colon
  TGI: > 100 µM
SK-MEL-28 melanoma
  TGI: > 100 µM
MOLT-4 leukemia
  TGI: > 100 µM
NCI/ADR-RES ovarian
  TGI: > 100 µM
T-47D breast
  TGI: > 100 µM
HL-60(TB) leukemia
  TGI: > 100 µM
UACC-257 melanoma
  TGI: > 100 µM
EKVX NSCLC
  TGI: > 100 µM
COLO 205 colon
  TGI: > 100 µM
SN12C renal
  TGI: > 100 µM
HT29 colon
  TGI: > 100 µM
OVCAR-4 ovarian
  TGI: > 100 µM
SK-OV-3 ovarian
  TGI: > 100 µM

## O=P1(c2ccccc2)C2=CCC=CC2C(c2ccccc2)N1Cc1ccccc1 (centres undefined)
CCRF-CEM leukemia
  TGI: 34.9 µM
MDA-MB-435
  TGI: 29.8 µM
TK-10 renal
  TGI: 35.4 µM
SF-268 CNS
  TGI: 30.9 µM
OVCAR-8 ovarian
  TGI: 38.1 µM
HS 578T breast
  TGI: 43.9 µM
MDA-MB-231 breast
  TGI: 33.6 µM
SK-MEL-2 melanoma
  TGI: 29.9 µM
MALME-3M melanoma
  TGI: 32.9 µM
OVCAR-5 ovarian
  TGI: > 100 µM
SW-620 colon
  TGI: 43 µM
MCF7 breast
  TGI: 25.6 µM
K-562 leukemia
  TGI: 35.5 µM
M14 melanoma
  TGI: 32.3 µM
DU-145 prostate
  TGI: 31.4 µM
HCT-116 colon
  TGI: 32.2 µM
SK-MEL-5 melanoma
  TGI: 29.8 µM
BT-549 breast
  TGI: 31.6 µM
KM12 colon
  TGI: 28.3 µM
SF-539 CNS
  TGI: 31.5 µM
NCI-H460 lung
  TGI: 28.1 µM
HOP-62 NSCLC
  TGI: 37.6 µM
U251 CNS
  TGI: 30.7 µM
MDA-N
  TGI: 38.2 µM
IGROV1 ovarian
  TGI: 32.9 µM
SR leukemia
  TGI: 53.5 µM
CAKI-1 renal
  TGI: 27 µM
UACC-62 melanoma
  TGI: 21.7 µM
A549 NSCLC
  TGI: 32.3 µM
ACHN renal
  TGI: 30.4 µM
PC-3 prostate
  TGI: 27.6 µM
SF-295 CNS
  TGI: 28.8 µM
RPMI-8226 leukemia
  TGI: 30.5 µM
HOP-92 NSCLC
  TGI: 26.6 µM
UO-31 renal
  TGI: 25.8 µM
SNB-19 CNS
  TGI: 41.2 µM
NCI-H522 lung
  TGI: 24.6 µM
NCI-H23 lung
  TGI: 24.8 µM
786-0 renal
  TGI: 29.4 µM
HCT-15 colon
  TGI: 28.1 µM
MOLT-4 leukemia
  TGI: 38.7 µM
NCI/ADR-RES ovarian
  TGI: 32.2 µM
T-47D breast
  TGI: 36.8 µM
HL-60(TB) leukemia
  TGI: 39.9 µM
UACC-257 melanoma
  TGI: 34.9 µM
EKVX NSCLC
  TGI: 28.7 µM
COLO 205 colon
  TGI: 29 µM
SN12C renal
  TGI: 31.5 µM
HT29 colon
  TGI: 24.2 µM
SK-OV-3 ovarian
  TGI: 31 µM

## N=C(c1cccs1)C1(N2CCCCC2)CCCCC1
CCRF-CEM leukemia
  TGI: 36.2 µM
MDA-MB-435
  TGI: 37.8 µM
TK-10 renal
  TGI: 35.7 µM
SF-268 CNS
  TGI: 50.8 µM
HCC-2998 colon
  TGI: 27.1 µM
HS 578T breast
  TGI: > 100 µM
MDA-MB-231 breast
  TGI: 31 µM
SK-MEL-2 melanoma
  TGI: 31.3 µM
MALME-3M melanoma
  TGI: 30.2 µM
OVCAR-5 ovarian
  TGI: 34.6 µM
SW-620 colon
  TGI: 34.7 µM
MCF7 breast
  TGI: 30.5 µM
K-562 leukemia
  TGI: 32 µM
M14 melanoma
  TGI: 47.4 µM
DU-145 prostate
  TGI: 30.4 µM
RXF 393 renal
  TGI: 29.5 µM
HCT-116 colon
  TGI: > 100 µM
BT-549 breast
  TGI: 41.9 µM
KM12 colon
  TGI: 34.6 µM
NCI-H460 lung
  TGI: 30 µM
OVCAR-3 ovarian
  TGI: 30.3 µM
HOP-62 NSCLC
  TGI: 47.8 µM
U251 CNS
  TGI: 30 µM
MDA-N
  TGI: > 100 µM
IGROV1 ovarian
  TGI: 39.6 µM
SR leukemia
  TGI: 37.1 µM
CAKI-1 renal
  TGI: 32.9 µM
UACC-62 melanoma
  TGI: 31 µM
A549 NSCLC
  TGI: 60.2 µM
ACHN renal
  TGI: 30.5 µM
PC-3 prostate
  TGI: 81.8 µM
SF-295 CNS
  TGI: 39.7 µM
LOX IMVI melanoma
  TGI: 47.9 µM
RPMI-8226 leukemia
  TGI: 33.8 µM
HOP-92 NSCLC
  TGI: 37.5 µM
UO-31 renal
  TGI: 30.5 µM
SNB-19 CNS
  TGI: 34.8 µM
NCI-H522 lung
  TGI: 30.9 µM
NCI-H23 lung
  TGI: 43.5 µM
786-0 renal
  TGI: > 100 µM
HCT-15 colon
  TGI: 29.7 µM
MOLT-4 leukemia
  TGI: 30.9 µM
A498 renal
  TGI: 34 µM
NCI/ADR-RES ovarian
  TGI: 44.7 µM
T-47D breast
  TGI: 27.1 µM
HL-60(TB) leukemia
  TGI: 33.6 µM
UACC-257 melanoma
  TGI: 31.8 µM
EKVX NSCLC
  TGI: 41.3 µM
SN12C renal
  TGI: 88.6 µM
HT29 colon
  TGI: 34.5 µM
OVCAR-4 ovarian
  TGI: 54.9 µM
SK-OV-3 ovarian
  TGI: 46.8 µM
